Activity calls are given as the source filed them.
Experiments:
[1] = Trypanosoma cruzi growth suppression in host cells – NIH3T3 host cells, beta-gal luminescence, confirmation (AID 2044); format: functional, cell-based;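 also: intracellular parasites grown in NIH/3T3 mouse fibroblasts as host cells; luminescent beta-galactosidase reporter signal from transgenic T. cruzi replicating inside host cells; inhibitors lower the luminescence signal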
[2] = NIH3T3 cell viability loss – ATP luminescence, mouse fibroblasts, counter-screen, dose response (AID 2010); format: functional, cell-based;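 also: cells exposed to compound for about 90 hours before reading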
[3] = target: T1, High affinity choline transporter 1 (Homo sapiens, UniProt Q9GZV3); experiment: human choline transporter blockers, potency – cell-based, 5-point CRC, membrane potential dye, dose response (AID 504840); format: functional
T1 sequence (Q9GZV3 whole entry): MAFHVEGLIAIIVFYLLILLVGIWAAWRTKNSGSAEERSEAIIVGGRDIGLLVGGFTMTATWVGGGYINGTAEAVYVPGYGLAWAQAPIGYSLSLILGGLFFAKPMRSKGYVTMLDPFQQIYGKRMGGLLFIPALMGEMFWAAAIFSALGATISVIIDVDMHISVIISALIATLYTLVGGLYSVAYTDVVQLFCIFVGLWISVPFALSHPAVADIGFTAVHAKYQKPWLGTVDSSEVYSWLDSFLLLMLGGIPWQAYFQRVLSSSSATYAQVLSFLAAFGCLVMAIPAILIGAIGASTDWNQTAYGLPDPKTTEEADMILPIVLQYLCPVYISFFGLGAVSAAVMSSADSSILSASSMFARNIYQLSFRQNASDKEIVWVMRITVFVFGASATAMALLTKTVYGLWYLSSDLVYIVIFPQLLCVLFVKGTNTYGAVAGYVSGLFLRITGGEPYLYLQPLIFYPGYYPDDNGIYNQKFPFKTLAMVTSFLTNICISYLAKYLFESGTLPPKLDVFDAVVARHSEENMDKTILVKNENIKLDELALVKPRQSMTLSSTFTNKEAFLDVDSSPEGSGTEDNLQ

Protein skinhead-1 = target: T2, Protein skinhead-1 (Caenorhabditis elegans, UniProt P34707); format: functional
T2 sequence (P34707 whole entry): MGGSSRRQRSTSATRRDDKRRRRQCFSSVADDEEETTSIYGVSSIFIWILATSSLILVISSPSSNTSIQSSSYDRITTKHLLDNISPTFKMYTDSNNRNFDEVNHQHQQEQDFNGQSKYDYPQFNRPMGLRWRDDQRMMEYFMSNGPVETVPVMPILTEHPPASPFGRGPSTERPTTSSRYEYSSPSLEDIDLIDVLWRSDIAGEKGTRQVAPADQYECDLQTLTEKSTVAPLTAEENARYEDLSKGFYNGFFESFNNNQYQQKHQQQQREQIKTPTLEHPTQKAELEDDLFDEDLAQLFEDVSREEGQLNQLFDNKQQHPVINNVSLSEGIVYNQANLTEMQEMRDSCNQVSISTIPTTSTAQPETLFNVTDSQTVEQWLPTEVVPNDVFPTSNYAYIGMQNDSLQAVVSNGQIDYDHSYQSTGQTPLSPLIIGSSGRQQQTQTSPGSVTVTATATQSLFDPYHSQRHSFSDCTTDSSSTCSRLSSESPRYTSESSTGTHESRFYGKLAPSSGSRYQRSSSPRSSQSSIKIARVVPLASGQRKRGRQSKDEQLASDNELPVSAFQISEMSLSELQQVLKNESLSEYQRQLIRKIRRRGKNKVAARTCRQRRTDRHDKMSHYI

[4] = target: T3, DNA repair and recombination protein RAD54-like (Homo sapiens, UniProt Q92698); experiment: RAD54 Holliday junction migration blockers – biochemical, fluorescence, cherry-picked samples, dose series, confirmation (AID 651657); format: functional
T3 sequence (Q92698 whole entry): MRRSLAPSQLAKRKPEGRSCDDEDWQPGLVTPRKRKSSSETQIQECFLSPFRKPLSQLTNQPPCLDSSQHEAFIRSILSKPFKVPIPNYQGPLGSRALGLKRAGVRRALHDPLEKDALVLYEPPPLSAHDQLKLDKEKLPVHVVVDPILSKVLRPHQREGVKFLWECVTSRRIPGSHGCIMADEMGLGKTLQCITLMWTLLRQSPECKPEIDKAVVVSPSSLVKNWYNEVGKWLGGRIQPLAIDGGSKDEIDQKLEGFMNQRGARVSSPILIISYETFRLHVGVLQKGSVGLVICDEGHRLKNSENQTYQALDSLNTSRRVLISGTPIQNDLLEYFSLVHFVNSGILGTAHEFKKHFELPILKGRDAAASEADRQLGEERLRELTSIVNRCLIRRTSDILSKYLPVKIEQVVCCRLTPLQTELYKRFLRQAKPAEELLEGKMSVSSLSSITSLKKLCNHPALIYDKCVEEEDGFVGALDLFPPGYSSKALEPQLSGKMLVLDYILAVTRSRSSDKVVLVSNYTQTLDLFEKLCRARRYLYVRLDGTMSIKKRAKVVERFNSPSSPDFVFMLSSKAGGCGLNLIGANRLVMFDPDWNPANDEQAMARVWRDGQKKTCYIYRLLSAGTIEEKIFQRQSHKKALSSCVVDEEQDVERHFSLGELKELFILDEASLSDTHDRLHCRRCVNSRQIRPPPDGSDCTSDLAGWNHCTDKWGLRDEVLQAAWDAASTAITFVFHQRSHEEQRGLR

[5] = target: T4, DNA repair protein RAD52 homolog (Homo sapiens, UniProt P43351); format: functional, biochemical
T4 sequence (P43351 whole entry): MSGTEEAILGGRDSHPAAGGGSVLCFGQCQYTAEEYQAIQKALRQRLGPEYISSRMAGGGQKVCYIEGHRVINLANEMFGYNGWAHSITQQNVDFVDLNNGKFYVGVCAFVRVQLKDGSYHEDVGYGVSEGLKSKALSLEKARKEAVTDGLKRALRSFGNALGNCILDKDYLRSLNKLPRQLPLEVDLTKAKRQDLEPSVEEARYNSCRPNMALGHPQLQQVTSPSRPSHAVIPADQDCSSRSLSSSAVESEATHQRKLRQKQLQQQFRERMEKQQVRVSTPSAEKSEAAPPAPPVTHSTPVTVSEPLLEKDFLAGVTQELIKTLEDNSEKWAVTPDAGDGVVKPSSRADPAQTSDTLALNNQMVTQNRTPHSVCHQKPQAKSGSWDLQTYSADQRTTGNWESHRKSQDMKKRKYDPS

[6] = microbe, parasite or virus in culture; format: functional; details: Mycobacterium tuberculosis
[7] = Luminescence Cell-Based Dose Retest to Confirm Inhibitors of Cancer Stem Cells. [Related pubchem assays (depositor defined):AID2717, AID2721]; format: functional; details: Homo sapiens
[8] = Fluorescence-based cell-based high throughput dose response assay for inhibitors of the interaction of nucleotide-binding oligomerization domain containing 2 (NOD2) and the receptor-interacting serine-threonine kinase 2 (RIPK2).; format: functional; details: Homo sapiens
Paired box protein Pax-8 = Paired box protein Pax-8 (Homo sapiens, UniProt Q06710); experiment: PAX8 transcriptional activity inhibition in RMG-I – RMG-I cells, luciferase, cherry-pick, dose response (AID 687027); format: functional, cell-based;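 also: luciferase reporter driven by Pax8 target thyroperoxidase promoter measured by SteadyGlo luminescence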
Sequence of Paired box protein Pax-8 (Q06710 whole entry): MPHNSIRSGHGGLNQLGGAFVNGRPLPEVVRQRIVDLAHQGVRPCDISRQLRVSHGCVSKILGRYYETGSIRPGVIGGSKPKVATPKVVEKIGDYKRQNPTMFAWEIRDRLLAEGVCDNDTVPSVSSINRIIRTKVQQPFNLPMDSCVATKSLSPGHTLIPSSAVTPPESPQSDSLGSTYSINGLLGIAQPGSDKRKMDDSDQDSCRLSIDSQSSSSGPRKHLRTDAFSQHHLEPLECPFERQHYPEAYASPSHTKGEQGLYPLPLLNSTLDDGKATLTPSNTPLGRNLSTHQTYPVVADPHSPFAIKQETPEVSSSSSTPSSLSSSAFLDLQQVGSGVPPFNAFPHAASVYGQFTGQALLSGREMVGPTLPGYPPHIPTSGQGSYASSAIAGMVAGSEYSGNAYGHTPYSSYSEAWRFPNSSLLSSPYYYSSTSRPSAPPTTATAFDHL

cells [9] = format: functional, cell-based
cells [10] = format: functional, cell-based; remark: listed apart in the source
[11] = target: T5, Short transient receptor potential channel 4 (Mus musculus, UniProt Q9QUQ5); experiment: block of DAMGO-driven TRPC4 calcium entry – cell-based, HEK293 TRPC4/mu-opioid, Fluo-4 calcium, dose response (AID 434942); format: functional;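 also: potency of inhibitors blocking the TRPC4 calcium response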
T5 sequence (Q9QUQ5 whole entry): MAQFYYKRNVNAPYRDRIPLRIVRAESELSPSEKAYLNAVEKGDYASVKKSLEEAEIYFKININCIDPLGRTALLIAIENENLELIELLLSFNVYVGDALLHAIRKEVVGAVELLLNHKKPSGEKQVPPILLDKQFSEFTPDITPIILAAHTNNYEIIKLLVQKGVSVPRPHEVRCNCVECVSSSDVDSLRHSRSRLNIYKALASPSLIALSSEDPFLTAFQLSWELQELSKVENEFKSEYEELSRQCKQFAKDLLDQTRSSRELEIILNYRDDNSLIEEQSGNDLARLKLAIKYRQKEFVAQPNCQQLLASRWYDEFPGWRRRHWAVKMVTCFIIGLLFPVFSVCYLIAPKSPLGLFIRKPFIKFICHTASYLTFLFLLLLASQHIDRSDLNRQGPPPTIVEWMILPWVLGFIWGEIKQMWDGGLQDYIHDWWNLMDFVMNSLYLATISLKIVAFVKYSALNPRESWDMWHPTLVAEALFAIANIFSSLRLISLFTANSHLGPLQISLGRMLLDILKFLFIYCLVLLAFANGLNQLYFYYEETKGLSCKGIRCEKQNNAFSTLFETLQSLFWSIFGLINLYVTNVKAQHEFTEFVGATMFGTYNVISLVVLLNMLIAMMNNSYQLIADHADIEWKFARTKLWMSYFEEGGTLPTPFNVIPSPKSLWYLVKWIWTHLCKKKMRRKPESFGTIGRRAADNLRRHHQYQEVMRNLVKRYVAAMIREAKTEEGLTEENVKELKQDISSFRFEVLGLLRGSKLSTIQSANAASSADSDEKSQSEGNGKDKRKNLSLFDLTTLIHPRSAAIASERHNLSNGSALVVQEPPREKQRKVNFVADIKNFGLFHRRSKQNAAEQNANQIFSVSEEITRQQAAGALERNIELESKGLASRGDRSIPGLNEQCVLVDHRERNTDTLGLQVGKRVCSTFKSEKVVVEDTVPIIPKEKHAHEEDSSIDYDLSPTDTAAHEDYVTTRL

INS1 = experiment: INS-1E survival protection against cytokine death – cell-based, luminescence, retest, dose response (AID 449756); format: functional; details: Rattus norvegicus;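 also: cell death triggered by IL-1 beta plus TNF-alpha plus IFN-gamma mixture; protective hits raise ATP signal compared with cytokine alone wells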
Hexokinase = target: T6, Hexokinase (Trypanosoma brucei, UniProt Q38C41); experiment: Confirmation assay for inhibitors of Trypanosoma brucei hexokinase 1-Analogue-first series. [Related pubchem assays (depositor defined):AID1430, AID1632, AID2516, AID2560, AID2579, AID2600, AID449725, AID492951]; format: functional
T6 sequence (Q38C41 whole entry): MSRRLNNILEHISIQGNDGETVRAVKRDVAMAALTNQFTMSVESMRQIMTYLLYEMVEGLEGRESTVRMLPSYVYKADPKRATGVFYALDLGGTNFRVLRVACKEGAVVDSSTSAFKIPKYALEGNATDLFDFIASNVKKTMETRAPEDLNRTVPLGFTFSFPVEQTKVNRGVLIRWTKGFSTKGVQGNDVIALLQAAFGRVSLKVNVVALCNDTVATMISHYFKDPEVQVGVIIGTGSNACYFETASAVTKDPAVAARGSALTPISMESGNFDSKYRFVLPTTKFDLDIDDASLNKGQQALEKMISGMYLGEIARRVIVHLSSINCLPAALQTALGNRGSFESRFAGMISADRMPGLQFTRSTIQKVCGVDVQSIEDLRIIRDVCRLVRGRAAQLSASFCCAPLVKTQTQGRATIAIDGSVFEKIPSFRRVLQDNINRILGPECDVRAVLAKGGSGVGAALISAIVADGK

[12] = target: Glucose-6-phosphate 1-dehydrogenase (Homo sapiens, UniProt P11413); experiment: inhibition of Homo sapiens G6PD, dose series – biochemical, fluorescence, selectivity assay for P. falciparum G6PD inhibitor project, dose response (AID 504792); format: functional
Sequence of Glucose-6-phosphate 1-dehydrogenase (P11413 whole entry): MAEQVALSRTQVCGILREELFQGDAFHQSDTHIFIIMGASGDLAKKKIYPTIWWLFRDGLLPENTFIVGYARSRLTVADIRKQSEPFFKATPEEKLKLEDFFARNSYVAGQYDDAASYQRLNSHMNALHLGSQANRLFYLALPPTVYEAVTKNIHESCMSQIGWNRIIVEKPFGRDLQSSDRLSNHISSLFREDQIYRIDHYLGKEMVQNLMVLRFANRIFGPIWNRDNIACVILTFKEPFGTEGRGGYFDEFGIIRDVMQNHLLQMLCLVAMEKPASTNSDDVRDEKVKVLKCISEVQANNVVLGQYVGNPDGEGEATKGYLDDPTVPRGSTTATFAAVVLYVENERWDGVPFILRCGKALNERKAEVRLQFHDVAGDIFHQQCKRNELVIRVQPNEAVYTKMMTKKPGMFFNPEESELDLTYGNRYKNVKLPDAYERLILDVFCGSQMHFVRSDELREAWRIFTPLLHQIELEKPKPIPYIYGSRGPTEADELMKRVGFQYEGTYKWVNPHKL

[13] = viability loss in HeLa cells – cytotoxicity control for MgcRacGAP inhibitor project, dose response (AID 624300); format: functional
[14] = target: T7, Rac GTPase-activating protein 1 (Homo sapiens, UniProt Q9H0H5); experiment: blockers of MgcRacGAP-driven Rac1 GTP hydrolysis – biochemical, ADP Hunter fluorescence, primary and confirmatory, confirmation (AID 624330); format: functional
T7 sequence (Q9H0H5 whole entry): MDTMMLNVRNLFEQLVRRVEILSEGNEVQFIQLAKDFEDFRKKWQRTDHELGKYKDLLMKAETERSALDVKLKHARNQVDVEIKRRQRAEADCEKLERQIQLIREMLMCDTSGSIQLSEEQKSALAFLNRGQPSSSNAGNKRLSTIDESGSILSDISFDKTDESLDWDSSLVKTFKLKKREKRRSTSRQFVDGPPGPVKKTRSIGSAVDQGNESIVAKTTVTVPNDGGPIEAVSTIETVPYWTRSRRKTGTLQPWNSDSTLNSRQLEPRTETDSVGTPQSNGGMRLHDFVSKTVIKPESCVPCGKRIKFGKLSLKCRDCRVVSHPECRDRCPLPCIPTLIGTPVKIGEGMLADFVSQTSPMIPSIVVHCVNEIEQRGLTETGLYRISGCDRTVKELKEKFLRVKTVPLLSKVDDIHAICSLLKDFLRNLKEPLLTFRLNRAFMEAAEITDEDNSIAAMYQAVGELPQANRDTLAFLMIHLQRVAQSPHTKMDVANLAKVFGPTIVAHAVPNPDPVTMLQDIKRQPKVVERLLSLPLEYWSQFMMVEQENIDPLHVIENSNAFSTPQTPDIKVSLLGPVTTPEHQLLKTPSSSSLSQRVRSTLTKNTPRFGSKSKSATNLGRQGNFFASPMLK

Q: Which results are given for CCN1CCN(c2cc(C)c3cc(NC(=S)N4CCCCC4)ccc3n2)CC1?
A: EC50 [1]: 2.28 µM (active); EC50 [2]: > 60 µM (not active); IC50 [3]: 12.6 µM (active); IC50 (Protein skinhead-1): > 100 µM (inactive); AC50 [4]: 100 µM (inactive); AC50 [5]: 14.1 µM (active)

Q: For CN1CCN(c2ccc(S(=O)(=O)N3CCCCC3)cc2NC(=O)/C=C/c2ccc(Cl)c([N+](=O)[O-])c2)CC1, which EC50 [1] is on record?
A: 1.85 µM (active)

Q: What about the CC50 [6] of the same compound?
A: 23.3 µM (active)

Q: And the EC50 [2]?
A: > 60 µM (not active)

Q: And the AC50 [7]?
A: 5.48 µM (active)

Q: And the IC50 [8]?
A: 6.18 µM (active)

Q: What about the AC50 (Paired box protein Pax-8) of the same compound?
A: 12.6 µM (active)

Q: Which EC50 (cells [9]) does the source give for c1ccc(CNc2c3ccccc3nc3ccccc23)cc1 here?
A: > 350 µM (not active)

Q: What about the EC50 [1] of the same compound?
A: 0.931 µM (active)

Q: What about the EC50 (cells [10]) of the same compound?
A: > 350 µM (not active)

Q: What about the EC50 [2] of the same compound?
A: 8.87 µM (active)

Q: And the EC50 [11]?
A: 1.33 µM (active)

Q: What about the AC50 (INS1) of the same compound?
A: 3.79 µM (active)

Q: What about the AC50 [4] of the same compound?
A: 5.21 µM (active)

Q: And the AC50 [5]?
A: 12.1 µM (active)

Q: Which results are given for O=c1c2ccccc2sn1-c1ccccc1F?
A: IC50 (Hexokinase): 2.26 µM (active); IC50 [12]: 17.8 µM (active); CC50 [13]: 72.2 µM (active); IC50 [14]: 41 µM (active)

Q: Which results are given for Cc1cc(-c2ccccc2)nc(N/N=C/c2ccc(N(C)C)cc2)n1?
A: CC50 [13]: 100 µM (active); IC50 [14]: 74.7 µM (active)
